Assay results taken from ChEMBL document CHEMBL1123898, “Antitumor imidazotetrazines. 14. Synthesis and antitumor activity of 6- and 8-substituted imidazo[5,1-d]-1,2,3,5-tetrazinones and 8-substituted pyrazolo[5,1-d]-1,2,3,5-tetrazinones” (1987).

Tests used:
Format in all cases: functional
L1210 [1] = assay: Antitumor activity was assessed against L1210 tumors in B6D2F1 mouse by inoculation of 10e5 tumor cells through intravenous route and number of Survivors to duration was reported at 40 mg/kg peroral dose; 5/7; settings: route oral
L1210 [2] = assay: Antitumor activity was assessed against L1210 tumors in B6D2F1 mouse by inoculation of 10e5 tumor cells through intravenous route and mean death of animals (treated/control) was reported at 20 mg/kg peroral dose; settings: route oral
L1210 [3] = assay: Antitumor activity was assessed against L1210 tumors in B6D2F1 mouse by inoculation of 10e5 tumor cells through intravenous route and mean death of animals (treated/control) was reported at 40 mg/kg peroral dose; settings: route oral
L1210 [4] = assay: Antitumor activity was assessed against L1210 tumors in B6D2F1 mouse by inoculation of 10e5 tumor cells through intravenous route and mean death of animals (treated/control) was reported at 10 mg/kg peroral dose; settings: route oral
[5] = Antitumor activity was assessed against TLX5 tumors in CBA/CA mouse by inoculation of 2 x 10e5 tumor cells through subcutaneous route and mean death of animals (treated/control) was reported at 40 mg/kg dose
[6] = Antitumor activity was assessed against TLX5 tumors in CBA/CA mouse by inoculation of 2 x 10e5 tumor cells through subcutaneous route and mean death of animals (treated/control) was reported at 320 mg/kg dose
[7] = Antitumor activity was assessed against TLX5 tumors in CBA/CA mouse by inoculation of 2 x 10e5 tumor cells through subcutaneous route and mean death of animals (treated/control) was reported at 160 mg/kg dose
[8] = Antitumor activity was assessed against TLX5 tumors in CBA/CA mouse by inoculation of 2 x 10e5 tumor cells through subcutaneous route and mean death of animals (treated/control) was reported at 80 mg/kg dose
[9] = Antitumor activity was assessed against TLX5 tumors in CBA/CA mouse by inoculation of 2 x 10e5 tumor cells through subcutaneous route and mean death of animals (treated/control) was reported at 20 mg/kg dose
[10] = Antitumor activity was assessed against TLX5 tumors in CBA/CA mouse by inoculation of 2 x 10e5 tumor cells through subcutaneous route and mean death of animals (treated/control) was reported at 5 mg/kg ip dose
[11] = Antitumor activity was assessed against TLX5 tumors in CBA/CA mouse by inoculation of 2 x 10e5 tumor cells through subcutaneous route and mean death of animals (treated/control) was reported at 40 mg/kg ip dose
L1210 [12] = assay: Antitumor activity was assessed against L1210 tumors in B6D2F1 mouse by inoculation of 10e5 tumor cells through intravenous route and number of Survivors to duration was reported at 40 mg/kg peroral dose; 1/7; settings: route oral
L1210 [13] = assay: Antitumor activity was assessed against L1210 tumors in B6D2F1 mouse by inoculation of 10e5 tumor cells through intravenous route and mean death of animals (treated/control) was reported at 5 mg/kg peroral dose; settings: route oral
[14] = Antitumor activity was assessed against TLX5 tumors in CBA/CA mouse by inoculation of 2 x 10e5 tumor cells through subcutaneous route and mean death of animals (treated/control) was reported at 10 mg/kg ip dose
[15] = Antitumor activity was assessed against TLX5 tumors in CBA/CA mouse by inoculation of 2 x 10e5 tumor cells through subcutaneous route and mean death of animals (treated/control) was reported at 20 mg/kg ip dose
[16] = Antitumor activity was assessed against TLX5 tumors in CBA/CA mouse by inoculation of 2 x 10e5 tumor cells through subcutaneous route and number of Survivors to duration was reported at 40 mg/kg ip dose; 4/5
[17] = Antitumor activity was assessed against TLX5 tumors in CBA/CA mouse by inoculation of 2 x 10e5 tumor cells through sc route and mean death of animals (treated/control) was reported at 40 mg/kg ip dose; settings: route subcutaneous
[18] = Antitumor activity was assessed against TLX5 tumors in CBA/CA mouse by inoculation of 2 x 10e5 tumor cells through sc route and mean death of animals (treated/control) was reported at 320 mg/kg ip dose; settings: route subcutaneous
L1210 [19] = assay: Antitumor activity was assessed against L1210 tumors in B6D2F1 mouse by inoculation of 10e5 tumor cells through iv route and number of Survivors to duration was reported at 200 mg/kg po dose; 10/10
[20] = Antitumor activity was assessed against TLX5 tumors in CBA/CA mouse by inoculation of 2 x 10e5 tumor cells through sc route and mean death of animals (treated/control) was reported at 160 mg/kg ip dose; settings: route subcutaneous
L1210 [21] = assay: Antitumor activity was assessed against L1210 tumors in B6D2F1 mouse by inoculation of 10e5 tumor cells through iv route and mean death of animals (treated/control) was reported at 100 mg/kg po dose
[22] = Antitumor activity was assessed against TLX5 tumors in CBA/CA mouse by inoculation of 2 x 10e5 tumor cells through sc route and number of Survivors to duration was reported at 160 mg/kg ip dose; 1/5; settings: route subcutaneous
L1210 [23] = assay: Antitumor activity was assessed against L1210 tumors in B6D2F1 mouse by inoculation of 10e5 tumor cells through iv route and mean death of animals (treated/control) was reported at 50 mg/kg po dose
L1210 [24] = assay: Antitumor activity was assessed against L1210 tumors in B6D2F1 mouse by inoculation of 10e5 tumor cells through iv route and mean death of animals (treated/control) was reported at 200 mg/kg po dose
[25] = Antitumor activity was assessed against TLX5 tumors in CBA/CA mouse by inoculation of 2 x 10e5 tumor cells through sc route and mean death of animals (treated/control) was reported at 80 mg/kg ip dose; settings: route subcutaneous
[26] = Antitumor activity was assessed against L1210 tumors in B6D2F1 mouse by inoculation of 10e5 tumor cells through intravenous route and mean death of animals (treated/control) was reported at 50 mg/kg peroral dose; settings: route oral
[27] = Antitumor activity was assessed against L1210 tumors in B6D2F1 mouse by inoculation of 10e5 tumor cells through intravenous route and mean death of animals (treated/control) was reported at 200 mg/kg peroral dose; settings: route oral
[28] = Antitumor activity was assessed against L1210 tumors in B6D2F1 mouse by inoculation of 10e5 tumor cells through intravenous route and mean death of animals (treated/control) was reported at 100 mg/kg peroral dose; settings: route oral
L1210 [29] = assay: Antitumor activity was assessed against L1210 tumors in B6D2F1 mouse by inoculation of 10e5 tumor cells through intravenous route and mean death of animals (treated/control) was reported at 80 mg/kg peroral dose; settings: route oral
L1210 [30] = assay: Antitumor activity was assessed against L1210 tumors in B6D2F1 mouse by inoculation of 10e5 tumor cells through intravenous route and mean death of animals (treated/control) was reported at 160 mg/kg peroral dose; settings: route oral

Which Survivors (L1210 [1]) does the source give for `CS(=O)(=O)c1cnn2c(=O)n(CCCl)nnc12` here?
Its Survivors is 5.

What about the T/C (L1210 [2]) of the same compound?
The T/C was 307%.

What about the T/C (L1210 [3]) of the same compound?
Its T/C is over 447%.

What about the T/C (L1210 [4]) of the same compound?
The T/C was 155%.

With `O=C(Nc1ccccc1)c1ncn2c(=O)n(CCCl)nnc12` as the compound, how does the T/C [5] read?
Its T/C is 103%.

What about the T/C [6] of the same compound?
Its T/C is 98%.

What about the T/C [7] of the same compound?
The T/C was 98%.

And the T/C [8]?
The T/C was 100%.

And the T/C [9]?
Its T/C is 98%.

For `NC(=O)c1ncn2c(=O)n(CCCl)nnc12` [MITOZOLOMIDE], which T/C [10] is on record?
Its T/C is 113%.

And the T/C [11]?
The T/C was over 458%.

What about the Survivors (L1210 [12]) of the same compound?
The Survivors was 1.

What about the T/C (L1210 [13]) of the same compound?
Its T/C is 133%.

What about the T/C (L1210 [2]) of the same compound?
The T/C was 217%.

What about the T/C (L1210 [3]) of the same compound?
The T/C was over 330%.

And the T/C [14]?
Its T/C is 163%.

What about the T/C [15] of the same compound?
The T/C was 167%.

And the Survivors [16]?
Its Survivors is 4.

And the T/C (L1210 [4])?
The T/C was 178%.

With `CN(C)C(=O)c1cnn2c(=O)n(CCCl)nnc12` as the compound, how does the T/C [17] read?
The T/C was 109%.

What about the T/C [18] of the same compound?
Its T/C is 48%.

And the Survivors (L1210 [19])?
The Survivors was 10.

And the T/C [20]?
Its T/C is over 248%.

And the T/C (L1210 [21])?
Its T/C is 250%.

What about the Survivors [22] of the same compound?
The Survivors was 1.

And the T/C (L1210 [23])?
The T/C was 144%.

What about the T/C (L1210 [24]) of the same compound?
The T/C was over 600%.

What about the T/C [25] of the same compound?
Its T/C is 131%.

Which T/C [26] does the source give for `NC(=O)c1nc(CCc2ccccc2)n2c(=O)n(CCCl)nnc12` here?
Its T/C is 100%.

And the T/C [27]?
Its T/C is 100%.

And the T/C [28]?
Its T/C is 100%.

Which T/C (L1210 [29]) does the source give for `O=C(NCc1ccccc1)c1ncn2c(=O)n(CCCl)nnc12` here?
The T/C was 130%.

What about the T/C (L1210 [3]) of the same compound?
Its T/C is 100%.

What about the T/C (L1210 [30]) of the same compound?
Its T/C is 183%.
